In patent US20230331918A1, “AMMONIUM AND SULFONIUM SULFONATE ZWITTERIONS AND POLYMERS DERIVED THEREFROM” (University of Massachusetts, priority 2022, published 2023):
In brackets after ≈: the same amount, converted by molar mass.

Test: Solubility of monomers and polymers in water, methanol, chloroform
Format: physicochemical
From the text: Monomer solubility (e.g., in water, methanol, or chloroform) varied with the selection of R-groups on the ammonium cation.

Row | Structure (SMILES) | Monomer solubility in MeOH (similar concentration (˜500 mg mL-1)) | solubility (methanol, organic solvent or mixture, monomer, room temperature, read-out: Monomer solubility in MeOH (clear solution)) [mg/mL]
1 | C=Cc1ccc(CC(CC[N+](CCCC)(CCCC)CCCC)S(=O)(=O)[O-])cc1 (centres unmarked) [tri-n-butyl derivative, 4-(Tributylammonio)-1-(4-vinylphenyl)butane-2-sulfonate] | required slightly elevated temperatures to attain solubility in MeOH | –
2 | C=Cc1ccc(CC(CC[N+](CCC)(CCC)CCC)S(=O)(=O)[O-])cc1 (centres unmarked) [tri-n-propyl derivative, 4-(Tripropylammonio)-1-(4-vinylphenyl)butane-2-sulfonate] | – | ~500 (≈ 1310 mM)
